Test results as given in US7605272B2, “IGF-1R inhibitor” (Kyowa Hakko Kirin Co., Ltd., priority 2005, dated 2009).

Assays:
[1] = test system: NCI-H929; test: Cytostatic activity on human multiple myeloma cell line NCI-H929 (WST-1); format: cell-based; details: NCI-H929 cells, test compound 1 μmol/L, WST-1; for inhibition at 1 µM: Homo sapiens, NCI-H929, 72 h, read-out: cytostatic rate (%) H929 (1 μmol/L)
Method in brief: (§1)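 Cells pre-cultured 24 h at 37 °C, 5% CO2, then exposed 72 h to compound at final 1 or 10 μmol/L (0.1% DMSO). WST-1 added for 2 h, absorbance at 450 nm (ref 690 nm). Cytostatic rate = 100 minus relative growth, with DMSO control as 100% and blank as 0%.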

[2] = target: T1, IGF-1R (Homo sapiens, UniProt P08069); test: IGF-1R inhibitory activity (kinase reaction, time-resolved fluoroimmunoassay); format: biochemical; details: IGF-1R active recombinant enzyme, test compound 10 μmol/L
T1 construct: purchased Upstate Co. 14-465
T1 sequence (P08069 959-1367 limits assumed): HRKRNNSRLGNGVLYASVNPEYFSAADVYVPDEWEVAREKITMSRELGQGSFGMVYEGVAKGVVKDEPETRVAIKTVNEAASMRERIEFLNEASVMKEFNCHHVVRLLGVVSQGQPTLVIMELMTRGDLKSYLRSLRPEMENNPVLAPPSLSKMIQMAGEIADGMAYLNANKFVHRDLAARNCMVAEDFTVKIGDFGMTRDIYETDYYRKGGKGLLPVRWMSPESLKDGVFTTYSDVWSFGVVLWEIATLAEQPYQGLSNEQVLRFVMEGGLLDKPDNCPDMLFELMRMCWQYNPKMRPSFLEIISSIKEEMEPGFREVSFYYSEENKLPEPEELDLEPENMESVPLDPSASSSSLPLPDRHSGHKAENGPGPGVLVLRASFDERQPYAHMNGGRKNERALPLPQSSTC
Method in brief: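 Compounds were tested at a single 10 μmol/L concentration. Each was incubated with recombinant IGF-1R (200 μg/L), 10 mmol/L ATP, MgCl2/MnCl2 and Na3VO4 (pH 7.5) on immobilized poly(Glu-Tyr) peptide for 30 min at 24° C. Eu-anti-phosphotyrosine time-resolved fluorescence (340/615 nm) gave relative activity against no-compound and no-enzyme wells, reported as % inhibition.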

[3] = test system: KMS-11; test: Cytostatic activity on human multiple myeloma cell line KMS-11 (WST-1); format: cell-based; details: KMS-11 cells, test compound 1 μmol/L, WST-1; for inhibition at 1 µM: Homo sapiens, KMS-11, 72 h, read-out: cytostatic rate (%) KMS-11 (1 μmol/L)
Method in brief: as §1

| SMILES | inhibition at 1 µM [1] [%] | inhibition at 10 µM [2] [%] | inhibition at 1 µM [3] [%] | cytostatic rate (%) H929 (1 μmol/L) [1] [%] | inhibitory activity (%) at 10 μmol/L [2] [%] | cytostatic rate (%) KMS-11 (1 μmol/L) [3] [%] |
| --- | --- | --- | --- | --- | --- | --- |
| CN(C)C(=O)c1ccc(/C=C/c2n[nH]c3ccccc23)c(N2C(=O)c3cccc(N)c3C2=O)c1 [Compound 326, (E)-3-(4-amino-1,3-dioxo-1,3-dihydroisoindol-2-yl)-4-[2-(1H-indazol-3-yl)vinyl]-N,N-dimethylbenzamide] | 118 | 103 | 102 | – | – | – |
| Cc1ccsc1C(=O)Nc1cc(C(=O)N(C)CCO)ccc1/C=C/c1n[nH]c2ccccc12 [Compound 327, (E)-N-{5-[N-(2-hydroxyethyl)-N-methylcarbamoyl]-2-[2-(1H-indazol-3-yl)vinyl]phenyl}-3-methylthiophene-2-carboxamide] | 116 | 101 | 98 | – | – | – |
| Cc1ccsc1C(=O)Nc1cc(C(=O)N(C)C2CCN(C)CC2)ccc1/C=C/c1n[nH]c2ccccc12 [Compound 328, (E)-N-{2-[2-(1H-indazol-3-yl)vinyl]-5-[N-methyl-N-(1-methylpiperidin-4-yl)carbamoyl]phenyl}-3-methylthiophene-2-carboxamide] | 116 | 97.9 | 105 | – | – | – |
| Cc1ccsc1C(=O)Nc1cc(CN2CCN(C)C(=O)C2)ccc1/C=C/c1n[nH]c2ccccc12 [Compound 329, (E)-N-{2-[2-(1H-indazol-3-yl)vinyl]-5-(4-methyl-3-oxopiperazine-1-ylmethyl)phenyl}-3-methylthiophene-2-carboxamide] | 132 | 105 | 116 | – | – | – |
| Cc1ccsc1C(=O)Nc1cc(CN2CC[C@@H](O)C2)ccc1/C=C/c1n[nH]c2ccccc12 [Compound 330, (R)-(E)-N-{5-(3-hydroxypyrrolidin-1-ylmethyl)-2-[2-(1H-indazol-3-yl)vinyl]phenyl}-3-methylthiophene-2-carboxamide] | 131 | 102 | 112 | – | – | – |
| Cc1ccsc1C(=O)Nc1cc(CN2CCNC[C@H]2C)ccc1/C=C/c1n[nH]c2ccccc12 [Compound 331, (R)-(E)-N-{2-[2-(1H-indazol-3-yl)vinyl]-5-(2-methylpiperazin-1-ylmethyl)phenyl}-3-methylthiophene-2-carboxamide] | 116 | 103 | 102 | – | – | – |
| Cn1cccc1C(=O)Nc1cc(CN2CCNCC2)ccc1/C=C/c1n[nH]c2ccccc12 [Compound 332] | – | – | – | 113.9 | 102.6 | 89.9 |
| COc1c(OCC(=O)N2CCN(C)CC2)ccc(/C=C/c2n[nH]c3ccccc23)c1NC(=O)c1sccc1C [Compound 333, (E)-N-{6-[2-(1H-indazol-3-yl)vinyl]-2-methoxy-3-[2-(4-methylpiperazin-1-yl)-2-oxoethoxy]phenyl}-3-methylthiophene-2-carboxamide] | 118 | 109 | 119 | – | – | – |
| COc1c(OCCN2C(=O)CNC2=O)ccc(/C=C/c2n[nH]c3ccccc23)c1NC(=O)c1sccc1C [Compound 334, (E)-N-{6-[2-(1H-indazol-3-yl)vinyl]-2-methoxy-3-[2-(2,5-dioxoimidazolidin-1-yl)ethoxy]phenyl}-3-methylthiophene-2-carboxamide] | 111 | 102 | 97.5 | – | – | – |
| COc1c(OCC(=O)N2CCOCC2)ccc(/C=C/c2n[nH]c3ccccc23)c1NC(=O)c1sccc1C [Compound 335, (E)-N-{6-[2-(1H-indazol-3-yl)vinyl]-2-methoxy-3-(2-morpholin-4-yl-2-oxoethoxy)phenyl}-3-methylthiophene-2-carboxamide] | 117 | 102 | 110 | – | – | – |
| Cc1ccsc1C(=O)Nc1cc(CN2CCNC[C@@H]2C)ccc1/C=C/c1n[nH]c2ccccc12 [Compound 336, (E)-(S)—N-{2-[2-(1H-indazol-3-yl)vinyl]-5-(2-methylpiperazin-1-ylmethyl)phenyl}-3-methylthiophene-2-carboxamide] | 131 | 101 | 115 | – | – | – |
| COc1c(OCCN2CCCC2=O)ccc(/C=C/c2n[nH]c3ccccc23)c1NC(=O)c1sccc1C [Compound 337, (E)-N-{6-[2-(1H-indazol-3-yl)vinyl]-2-methoxy-3-[2-(2-oxopyrrolidin-1-yl)ethoxy]phenyl}-3-methylthiophene-2-carboxamide] | 120 | 97.4 | 121 | – | – | – |
| CCCS(=O)(=O)NCCOc1ccc(/C=C/c2n[nH]c3ccccc23)c(NC(=O)c2sccc2C)c1OC [Compound 338, (E)-N-{6-[2-(1H-indazol-3-yl)vinyl]-2-methoxy-3-[2-(propylsulfonylamino)ethoxy]phenyl}-3-methylthiophene-2-carboxamide] | 120 | 99 | 122 | – | – | – |
| CCN(CCO)CCCOc1ccc(/C=C/c2n[nH]c3ccccc23)c(NC(=O)c2sccc2C)c1OC [Compound 339, (E)-N-{3-{3-[N-ethyl(2-hydroxyethyl)amino]propoxy}-6-[2-(1H-indazol-3-yl)vinyl]-2-methoxyphenyl}-3-methylthiophene-2-carboxamide] | 119 | 104 | 118 | – | – | – |
| COc1c(OCCCN2CCC[C@H]2CO)ccc(/C=C/c2n[nH]c3ccccc23)c1NC(=O)c1sccc1C [Compound 340, (E)-(s)-N-{3-[3-(2-hydroxymethylpyrrolidin-1-yl)propoxy]-6-[2-(1H-indazol-3-yl)vinyl]-2-methoxyphenyl}-3-methylthiophene-2-carboxamide] | 121 | 103 | 118 | – | – | – |
| COc1c(OCCCN2CCNC(=O)C2)ccc(/C=C/c2n[nH]c3ccccc23)c1NC(=O)c1sccc1C [Compound 341, (E)-N-{6-[2-(1H-indazol-3-yl)vinyl]-2-methoxy-3-[3-(3-oxopiperazin-1-yl)propoxy]phenyl}-3-methylthiophene-2-carboxamide] | 120 | 105 | 124 | – | – | – |
| COc1c(OCCCN2CCOCC2)ccc(/C=C/c2n[nH]c3ccccc23)c1NC(=O)c1sccc1C [Compound 342, (E)-N-{6-[2-(1H-indazol-3-yl)vinyl]-2-methoxy-3-(3-morpholin-4-yl)propoxyphenyl}-3-methylthiophene-2-carboxamide] | – | – | – | 118.7 | 101.6 | 122.6 |
| COc1c(OC(=O)CC(=O)N2CC[C@@H](O)C2)ccc(/C=C/c2n[nH]c3ccccc23)c1NC(=O)c1sccc1C [Compound 343, (E)-N—(R)-{6-[2-(1H-indazol-3-yl)vinyl]-2-methoxy-3-[(3-hydroxypyrrolidine-1-ylcarbonyl)acetyloxy]phenyl}-3-methylthiophene-2-carboxamide] | – | – | – | 127.5 | 98.4 | 79 |
| COc1c(OCCCN2CCC(O)CC2)ccc(/C=C/c2n[nH]c3ccccc23)c1NC(=O)c1sccc1C [Compound 344, (E)-N-{3-[3-(4-hydroxypiperidin-1-yl)propoxy]-6-[2-(1H-indazol-3-yl)vinyl]-2-methoxyphenyl}-3-methylthiophene-2-carboxamide] | 133 | 97.4 | 117 | – | – | – |
